Source: patent US20180338899A1, “INHIBITORS FOR METHYLATION-RELATED ENZYMES HAT1 AND KAT8” (priority 2015, published 2018)

Tests used:
[1] = tested on: HLF cells; assay: Cell growth suppression of HLF cells on culture plates; format: cell-based; details: 360 μg/L, day 3 and day 7
Method: First, HLF cells were cultured on culture plates with RPMI1640 for 7 days. […] In the figures, the “D” denotes days.
Furthermore, rebamipide was added to HLF cells on a culture pate, and the effect on the cells was examined.

[2] = interview form of commercially available medicine; cited from earlier work
[3] = target: T1, HAT1 (Homo sapiens, UniProt O14929); details: stated as property of the compound, no test described; cited from earlier work
T1 sequence (O14929 1-419): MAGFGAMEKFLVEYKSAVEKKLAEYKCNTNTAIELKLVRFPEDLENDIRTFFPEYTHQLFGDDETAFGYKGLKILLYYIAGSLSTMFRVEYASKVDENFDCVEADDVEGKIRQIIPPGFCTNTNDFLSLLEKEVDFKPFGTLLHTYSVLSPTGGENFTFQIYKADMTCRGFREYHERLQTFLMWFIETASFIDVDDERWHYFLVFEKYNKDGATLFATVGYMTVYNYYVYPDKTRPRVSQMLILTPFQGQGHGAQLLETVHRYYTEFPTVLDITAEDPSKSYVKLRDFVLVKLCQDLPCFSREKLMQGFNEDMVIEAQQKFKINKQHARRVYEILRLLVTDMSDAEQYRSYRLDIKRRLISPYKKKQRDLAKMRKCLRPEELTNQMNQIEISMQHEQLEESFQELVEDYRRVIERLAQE

[4] = target: T2, KAT8 (Homo sapiens, UniProt Q9H7Z6); details: stated as property of the compound, no test described; cited from earlier work
T2 sequence (Q9H7Z6 1-458): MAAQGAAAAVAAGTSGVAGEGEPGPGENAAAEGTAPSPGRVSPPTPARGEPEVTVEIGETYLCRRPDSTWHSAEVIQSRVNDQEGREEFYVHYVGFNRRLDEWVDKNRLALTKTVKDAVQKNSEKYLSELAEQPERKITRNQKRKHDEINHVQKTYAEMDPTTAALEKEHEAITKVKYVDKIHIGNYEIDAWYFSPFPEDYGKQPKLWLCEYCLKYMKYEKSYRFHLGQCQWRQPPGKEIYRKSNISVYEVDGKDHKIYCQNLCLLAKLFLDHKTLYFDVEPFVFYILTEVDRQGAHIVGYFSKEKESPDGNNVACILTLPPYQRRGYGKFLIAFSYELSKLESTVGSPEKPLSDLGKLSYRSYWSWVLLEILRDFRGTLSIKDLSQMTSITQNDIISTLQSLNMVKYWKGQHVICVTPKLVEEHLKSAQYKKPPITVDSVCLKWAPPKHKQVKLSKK

[5] = target: T1, HAT1; assay: FDA library screening (analysis service PLEXERA) and binding strength, HAT1
Source text: (§1) Medicines containing each as an active ingredient (provided that each medicine has an indication other than that for malignant tumors) have already been commercially available.
(§2) Meanwhile, medicines containing each as an active ingredient (provided that each medicine has an indication other than that for malignant tumors) have already been commercially available.

[6] = target: T2, KAT8; assay: FDA library screening (analysis service PLEXERA) and binding strength, KAT8
Source text: as §1, §2

[7] = tested on: HAT1; assay: Inhibitory effect of low-molecular-weight compounds on expression of HAT1 by RT-PCR; format: cell-based; details: FIG. 6
[8] = tested on: KAT8; assay: Inhibitory effect of low-molecular-weight compounds on expression of KAT8 by RT-PCR; format: cell-based; details: FIG. 6
[9] = tested on: HLF cells; assay: Cell death and cell growth suppression rate of HLF cells, 3D cell culture spheroid counter Cell3iMager; format: cell-based; details: within an effective blood concentration or even at the minimum effective blood concentration or less
Method: In addition, chlorpropamide or MG149 was added to HLF cells on culture plates and the cell death and cell growth suppression rate were inspected using a 3D cell culture spheroid counter Cell 3 i Mager (SCREEN, Inc., Kyoto). […] The rows indicate the days of culture and the columns show the kinds and concentrations of the compounds. The concentrations of chlorpropamide were represented in a ratio when the maximum effective blood concentration was set to 1. As the maximum effective blood concentration of chlorpropamide was used 30 µg/ml (which is a value described in the interview form of a commercially available medicine containing chlorpropamide as an active ingredient).

[10] = tested on: various tumors (cancer and sarcoma types); assay: Drug sensitivity test, anti-tumor effect on various tumors; format: cell-based; details: within an effective blood concentration or even at the minimum effective blood concentration or less; values only in FIG. 13
Source text: Moreover, how chlorpropamide exerted an anti-tumor effect on various tumors was investigated. Target tumor types, which are classified into cancer (epithelial malignant tumors), include thyroid cancer, malignant brain tumor, malignant melanoma, lung cancer, gastric cancer, liver cancer, pancreatic cancer, colon cancer, cervical cancer, ovarian cancer, bladder cancer, and neuroblastoma. Target tumor types, which are classified into sarcoma (non-epithelial malignant tumors), include fibrosarcoma and osteosarcoma.
The concentrations of chlorpropamide were represented in a ratio when the maximum effective blood concentration was set to 1 as described above. […] The results mean that chlorpropamide can be used as an effective and safe anti-malignant tumor agent acting on various tumors.

## O=C(NC(Cc1cc(=O)[nH]c2ccccc12)C(=O)O)c1ccc(Cl)cc1 (centres unmarked) [Rebamipide, rebamipide]
[1]
  cell growth suppression effect: no cell growth suppression effect
[2]
  maximum effective blood concentration (Cmax): 360 ng/mL
[3]
  inhibition of HAT1: inhibits HAT1
[4]
  inhibition of KAT8: does not inhibit KAT8

## CCCNC(=O)NS(=O)(=O)c1ccc(Cl)cc1 [chlorpropamide]
[5]
  inhibition of function of HAT1: inhibited function of both HAT1 and KAT8
[6]
  inhibition of function of KAT8: inhibited function of both HAT1 and KAT8
[7]
  inhibitory effect on expression of HAT1: inhibitory effect
[8]
  inhibitory effect on expression of KAT8: inhibitory effect
[9]
  cell growth suppression effect: elicited a cell growth suppression effect
[10]
  cell growth suppression effect on various tumors: elicited a cell growth suppression effect on each tumor
[2]
  maximum effective blood concentration (Cmax): 30000 ng/mL
